The record followed here is patent publication US6407248B1, “α-unsaturated amines, their production and use” (Takeda Chemical Industries, Ltd., priority 1987, dated 2002).

Data set [1] has as its system Brown Planthoppers (Nilaparvata lugens). Description: Effect against brown planthoppers (foliar spray on rice seedlings). As to conditions: Nilaparvata lugens, foliar, 168 h, read-out: % Mortality after 7 days. In kind it is in vivo. The protocol: Effect Against Brown Planthoppers (Nilaparvata lugens)
An emulsifiable concentrate of the compound of the invention, prepared in the same manner as Example 112 below, was diluted with water to a concentration of 500 ppm and sprayed over the stems and leaves of rice seedlings in the 2-leaf stage at the rate of 10 ml per paper pot. Water was put in test tubes and the treated rice seedlings were placed therein. Then, 10 brown planthopper larvae were released in each tube, which was then capped with an aluminum cap. The test tubes were maintained in an incubator at 25° C. and the dead insects were counted 7 days after release. The % mortality was calculated using the following formula. [formula]

On to `CSC(=C[N+](=O)[O-])NCc1cccnc1`, for which the melting point fell in the range of 129 to 130 °C.
`O=[N+]([O-])C=C(NCc1cccnc1)NCc1cccnc1` came in with a melting point of 141 to 143 °C.
Same read-out and setting: the figure for `NC(=C[N+](=O)[O-])NCc1cccnc1` is 177 to 178 °C (dec.).
Still for that read-out and setting: the figure for `CCCSCCNC(=C[N+](=O)[O-])NCc1cccnc1` is 93 to 94 °C.
On the same count and under the same terms, next, `O=[N+]([O-])C=C(NCCO)NCc1cccnc1`: 161 to 163 °C; `COC(CNC(=C[N+](=O)[O-])NCc1cccnc1)OC`: 96 to 98 °C; `O=[N+]([O-])C=C(NCc1cccnc1)NCC(F)(F)F`: 164 to 165 °C.
Take `O=[N+]([O-])C=C(NCc1cccnc1)N1CCOCC1`: the melting point was 102 to 103 °C.
`CC(C)NC(=C[N+](=O)[O-])NCc1cccnc1`: the melting point was 148 to 150 °C.
For `CCCCNC(=C[N+](=O)[O-])NCc1cccnc1`, the melting point was in the range of 110 to 112 °C.
In the case of `CCCCCNC(=C[N+](=O)[O-])NCc1cccnc1`, the melting point lay within 97 to 98 °C.
Take `O=[N+]([O-])C=C(NCc1cccnc1)Nc1ccccc1`: the melting point is 217 to 218 °C.
`CCN(Cc1cnc(Cl)s1)C(=C[N+](=O)[O-])N(C)C=O` [Compound 122, 1-[N-(2-Chloro-5-thiazolylmethyl)-N-ethyl) amino-1-(N-formyl-N-methyl)amino-2-nitroethylene]: the mortality at 500 µg/mL in data set [1] was 100%.
`CNC(=C[N+](=O)[O-])N(C=O)Cc1cnc(Cl)s1` [Compound 124, 1-[N-(2-chloro-5-thiazolylmethyl)-N-formyl]amino-1-methylamino-2-nitroethylene]: in data set [1], the mortality at 500 µg/mL turned out to be 100%.
The same measure, in the same setting: next, `CN(C=O)C(=C[N+](=O)[O-])N(C)Cc1ccc(Br)nc1` [Compound 125, 1-[N-(6-Bromo-3-pyridylmethyl)-N-methyl]amino-1-(N-formyl-N-methyl)amino-2-nitroethylene]: 100%; `CCN(Cc1ccc(Br)nc1)C(=C[N+](=O)[O-])N(C)C=O` [Compound 126, 1-[N-(6-Bromo-3-pyridylmethyl)-N-ethyl]amino-1-(N-formyl-N-methyl)amino-2-nitroethylene]: 100%.
On the same count and under the same terms, next, `CN(C)C(=C[N+](=O)[O-])NCc1ccc(Br)nc1` [Compound 127, 1-N-(6-Bromo-3-pyridylmethyl)amino-1-dimethylamino-2-nitroethylene]: 100%; `CN(C)C(=C[N+](=O)[O-])N(C=O)Cc1ccc(Br)nc1` [Compound 128, 1-[N-(6-Bromo-3-pyridylmethyl)-N-formyl]amino-1-dimethylamino-2-nitroethylene]: 100%.
Turning to `CN(Cc1ccc(Br)nc1)C(N)=C[N+](=O)[O-]` [Compound 129, 1-Amino-1-[N-(6-bromo-3-pyridylmethyl)-N-methyl]amino-2-nitroethylene], the mortality at 500 µg/mL in data set [1] amounted to 100%.
On the same count and under the same terms, the figure for `CN(C)C(=C[N+](=O)[O-])N(C=O)Cc1cnc(Cl)s1` [Compound 130, 1-[N-(2-Chloro-5-thiazolylmethyl)-N-formyl]amino-1-dimethylamino-2-nitroethylene] is 100%.
Same read-out and setting: next, `CNC(=C[N+](=O)[O-])N(Cc1ccc(Cl)nc1)CC(F)(F)F` [Compound 131, 1-[N-(6-Chloro-3-pyridylmethyl)-N-(2,2,2-trifluoroethyl)]amino-1-methylamino-2-nitroethylene]: 100%.
